Results on 3 compounds are retold here after ChEMBL document CHEMBL1201862, “PubChem BioAssay data set” (2004).

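Where inhibition never reached the appropriate level, the endpoint shown equals the highest concentration tested. Otherwise, values were interpolated linearly from a five-concentration, 48-hour dose response in 96-well plates. GI50 marks 50% less growth.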 Calls of active or inactive are those of the source. No stated cut-off is given here; in the data, active = GI50 up to about 1.1 µM and inactive = higher.

Test systems include A549; CCRF-CEM; HCT-15; HL-60; IGROV-1; K562; LOX IMVI; MOLT-4; OVCAR-3; OVCAR-8; RXF 393; SF-268; SF-295; SK-MEL-28; SK-MEL-2; SNB-19; SR; U-251; UACC-257; UO-31.
What all share (experiment): inhibition of tumour cell growth, NCI panel, 48 h

`CCOC(=O)c1c(N2CCCC2)nsc1Nc1ccc(F)cc1`: the GI50 with A549 was 27.9 µM (inactive); in the experiment on CCRF-CEM it was 28.1 µM (inactive); with HCT-15 it was 29.6 µM; in the experiment with HL-60, 20.4 µM (inactive); in the experiment on IGROV-1 it was 55 µM (inactive); with K562, 29.8 µM (inactive). For the same compound, the GI50 is 53.7 µM (inactive) with LOX IMVI; 23.9 µM (inactive) in the experiment on MOLT-4; > 100 µM (inactive) in the experiment with OVCAR-3; 41.4 µM (inactive) in the experiment on OVCAR-8; 13.6 µM (inactive) in the experiment on RXF 393; 73.6 µM (inactive) in the experiment on SF-268. Further, the GI50 is 60 µM (inactive) in the experiment with SF-295; 54.3 µM (inactive) in the experiment with SK-MEL-28; 19.2 µM (inactive) in the experiment with SK-MEL-2; > 100 µM (inactive) with SNB-19; 45.7 µM (inactive) in the experiment on SR; 41.9 µM (inactive) with U-251. In addition, the results for the GI50 in the experiment with UACC-257 and in the experiment on UO-31 were 45.1 µM (inactive) and 16 µM (inactive), respectively.
With `CC(C)N(CCCNc1c2ccccc2nc2cccc([N+](=O)[O-])c12)C(C)C`, the GI50 in the experiment on A549 is < 0.0104 µM (active); with CCRF-CEM it was < 0.0173 µM (active); with HCT-15, 0.0191 µM; with HL-60, < 0.018 µM (active); with IGROV-1, < 0.0385 µM (active); in the experiment with K562, 0.0195 µM (active). The GI50 in the experiment on LOX IMVI is < 0.0206 µM (active); in the experiment on MOLT-4, < 0.0134 µM (active); in the experiment with OVCAR-3, < 0.023 µM (active); in the experiment with OVCAR-8 it was < 0.0167 µM (active); with RXF 393, 0.0153 µM (active); in the experiment with SF-268 it was < 0.0224 µM (active). The GI50 was < 0.0152 µM (active) with SF-295; < 0.01 µM (active) in the experiment on SK-MEL-28; 0.0473 µM (active) in the experiment on SK-MEL-2; < 0.0224 µM (active) in the experiment with SNB-19; < 0.01 µM (active) in the experiment on SR; < 0.0163 µM (active) in the experiment on U-251. Besides, the GI50 is < 0.0231 µM (active) in the experiment with UACC-257 and < 0.0224 µM (active) in the experiment with UO-31.
With `CCCC(=O)[O-].[Na+]` [SODIUM BUTYRATE], the GI50 in the experiment on A549 is 7830 µM (inactive); in the experiment on CCRF-CEM, 2050 µM (inactive); in the experiment with HCT-15 it was 10600 µM; in the experiment on HL-60 it was 721 µM (inactive); with IGROV-1, 4450 µM (inactive); in the experiment on K562, 1000 µM (inactive). Further, the GI50 is 3520 µM (inactive) in the experiment on LOX IMVI; 3730 µM (inactive) in the experiment with MOLT-4; 9910 µM (inactive) in the experiment on OVCAR-3; 1990 µM (inactive) in the experiment with OVCAR-8; 8390 µM (inactive) in the experiment on RXF 393; 8280 µM (inactive) with SF-268. Also, the GI50 in the experiment on SF-295 is 7660 µM (inactive); in the experiment with SK-MEL-28 it was 4170 µM (inactive); in the experiment with SK-MEL-2 it was 4720 µM (inactive); in the experiment with SNB-19, 8170 µM (inactive); in the experiment with SR, 789 µM (inactive); with U-251, 4790 µM (inactive). Further, the values for the GI50 in the experiment with UACC-257 and with UO-31 were 1000 µM (inactive) and 2520 µM (inactive), respectively.
